US4888336A, “Steroid 5-alpha-reductase inhibitors” (SmithKline Beckman Corporation, priority 1987, dated 1989)
Where two headings read alike, the source gives them in different places.

Experiments:
[1] = test system: Steroid 5-alpha-reductase; conditions: cited from earlier work; for Reversibility of inhibition: Table 1; for Inhibition of steroid 5-alpha-reductase, in words: literature description
[2] = target: T1, human steroid 5-alpha-reductase (Homo sapiens, UniProt P31213); test: Inhibition of human prostatic steroid 5-alpha-reductase ([14C]-testosterone conversion, Dixon plot); assay type: biochemical
T1 construct: Prostatic particles were obtained by differential centrifugation; from tissue; host or cells: hyperplastic human prostate, washed 140,000×g particulate fraction
T1 sequence (P31213 1-254): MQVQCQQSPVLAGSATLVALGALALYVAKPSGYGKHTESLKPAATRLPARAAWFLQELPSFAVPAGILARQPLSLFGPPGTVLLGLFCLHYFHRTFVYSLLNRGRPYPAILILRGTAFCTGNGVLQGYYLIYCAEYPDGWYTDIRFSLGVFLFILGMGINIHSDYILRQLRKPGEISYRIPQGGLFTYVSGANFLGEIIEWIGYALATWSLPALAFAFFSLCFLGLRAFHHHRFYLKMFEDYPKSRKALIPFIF
Method: In determining potency in inhibiting the human enzyme, the following procedure was employed:
The tissue was homogenized in 3 to 5 volumes of 20 mM potassium phosphate, pH 6.5, buffer containing 0.33 M sucrose, 1 mM dithiothreitol, and 50 μM NADPH with a Brinkmann Polytron (Sybron Corporation, Westbury, N.Y.).
The resulting pellet was suspended in 20 mM potassium phosphate buffer, pH 6.5, containing 20% glycerol, 1 mM dithiothreitol, and 50 μM NADPH. The suspended particulate solution was stored at -80° C.
After incubating the solution at 37° C. for 20 to 30 minutes the reaction was quenched by the addition of 4 ml ethyl acetate and 0.25 μmol each of testosterone, dihydrotestosterone, androstanediol, and androstanedione as carriers. The organic layer was removed to a second test tube and evaporated to dryness in a Speed Vac. […] The radiochemical content in the bands of the substrate and the products was determined with a BIOSCAN Imaging Scanner (Bioscan, Inc., Washington, D.C.). The percent of recovered radiolabel converted to product was calculated, from which enzyme activity was determined. All incubations were conducted such that no more than 12% of the substrate (testosterone) was consumed.
The experimentally obtained data was computer fitted to a linear function by plotting the reciprocal of the enzyme activity (1/velocity) against the variable inhibitor concentration (Dixon, M. (1953), Biochem. J., 55, 170). Assuming that the steroidal inhibitor is a competitive inhibitor against testosterone, a value for the inhibition constant (Ki) can be calculated from equation 1: […]

[3] = test system: steroid 5-alpha-reductase; test: In vivo inhibition of steroid 5-alpha-reductase: T and DHT levels in rat ventral prostate, 6 hours after oral dosing (Table III); parameters: species or system Male Charles River CD rats; conditions: for DHT level / T level: ± SEM
5-alpha-reductase = test: Time course of in vivo 5-alpha-reductase inhibition: T and DHT in rat ventral prostate (Table IV); parameters: species or system rats; conditions: for DHT level / T level: ventral prostate, mean + SEM; for DHT level: ** P < .05; for T level: listed as name T not given
[4] = read-out: K1 (5-alpha-Reductase Inhibitors)
[5] = human hyperplastic prostate particulate, pH 5.0, 37° C., read-out: Ki

Question: Which Reversibility of inhibition [1] does the source give for `CCN(CC)C(=O)[C@H]1CC[C@H]2[C@@H]3CC[C@H]4N(C)C(=O)CC[C@]4(C)[C@H]3CC[C@]12C` [(4)] here?
Answer: Reversible

Question: What about the Ki [1, 4] of the same molecule?
Answer: 5 nM

Question: For `CC(C)N(C(=O)[C@H]1CCC2=C3CC[C@H]4N(C)C(=O)CC[C@]4(C)[C@H]3CC[C@@]21C)C(C)C` [(3)], which Ki [2, 5] is on record?
Answer: 8 ± 2 nM

Question: Which Ki [2] does the source give for `C[C@@H](CO)[C@H]1CCC2=C3CC[C@H]4N(C)C(=O)CC[C@]4(C)[C@H]3CC[C@@]21C` [(1)] here?
Answer: 450 ± 20 nM

Question: For `CC(=O)C1CCC2C3CC=C=CC(=O)CCC(=O)C3CCC12C` (stereo not shown) [(2)], which Reversibility of inhibition [1] is on record?
Answer: Irreversible

Question: And the Ki [1, 4]?
Answer: 1000 nM

Question: What does the source list for `C[C@@H](C(=O)O)[C@H]1CCC2=C3CC[C@H]4N(C)C(=O)CC[C@]4(C)[C@H]3CC[C@@]21C` [4-Methyl-4-aza-5-alpha-8(14)-pregnen-3-one-(20R)-20-carboxylic acid]?
Answer: T/DHT ([3]; 5 mg/kg oral): 0.79; DHT level ([3]; 5 mg/kg oral): 0.43 ± .12 ng/100 mg ventral prostate tissue; T level ([3]; 5 mg/kg oral): 0.34 ± .11 ng/100 mg ventral prostate tissue; T/DHT ([3]; 10 mg/kg oral): 0.76; DHT level ([3]; 10 mg/kg oral): 0.34 ± .09 ng/100 mg ventral prostate tissue; T level ([3]; 10 mg/kg oral): 0.26 ± .07 ng/100 mg ventral prostate tissue; T/DHT ([3]; 20 mg/kg oral): 0.88; DHT level ([3]; 20 mg/kg oral): 0.34 ± .06 ng/100 mg ventral prostate tissue; T level ([3]; 20 mg/kg oral): 0.30 ± .04 ng/100 mg ventral prostate tissue

Question: For `C=C1C[C@@H]2[C@H](CC[C@@]3(C)[C@H]2CC[C@]3(OC(C)=O)C(C)=O)[C@@]2(C)CCC(=O)C=C12` [(5)], which Reversibility of inhibition [1] is on record?
Answer: Irreversible

Question: And the “Inhibition of steroid 5-alpha-reductase, in words” value [1]?
Answer: time-dependent inactivator

Question: And the Ki [1, 4]?
Answer: 1250 nM

Question: With `C[C@@H](C(=O)O)[C@H]1CCC2=C3CC[C@H]4N(C)C(=O)CC[C@]4(C)[C@H]3CC[C@@]21C` [(2)] as the molecule, how does the Ki [2, 5] read?
Answer: 100 ± 10 nM

Question: Which results are given for `CC(CO)[C@H]1CC[C@H]2[C@@H]3CC[C@H]4C(=[N+]=[N-])C(=O)CC[C@]4(C)[C@H]3CC[C@]12C` (stereo partly shown) [(3)]?
Answer: Reversibility of inhibition [1]: Irreversible; Ki ([1]; line (3) printed without unit, read-out: K1 (5-alpha-Reductase Inhibitors), unit inferred): 35 nM; Inhibition of steroid 5-alpha-reductase, in words [1]: potent, time-dependent inhibitor

Question: What does the source list for `C[C@@H](CO)[C@H]1CCC2=C3CC[C@H]4N(C)C(=O)CC[C@]4(C)[C@H]3CC[C@@]21C` [(20R)-Hydroxymethyl-4-methyl-4-aza-5-alpha-8(14)-pregnen-3-one]?
Answer: T/DHT ([3]; 5 mg/kg oral): 0.72; DHT level ([3]; 5 mg/kg oral): 0.72 ± .21 ng/100 mg ventral prostate tissue; T level ([3]; 5 mg/kg oral): 0.52 ± .27 ng/100 mg ventral prostate tissue; T/DHT ([3]; 10 mg/kg oral): 0.83; DHT level ([3]; 10 mg/kg oral): 0.53 ± .12 ng/100 mg ventral prostate tissue; T level ([3]; 10 mg/kg oral): 0.44 ± .13 ng/100 mg ventral prostate tissue; T/DHT ([3]; 20 mg/kg oral): 0.92; DHT level ([3]; 20 mg/kg oral): 0.49 ± .14 ng/100 mg ventral prostate tissue; T level ([3]; 20 mg/kg oral): 0.45 ± .12 ng/100 mg ventral prostate tissue

Question: What does the source list for `C[C@]12CC[C@H]3[C@@H](CCC4=CC(=O)CC[C@@]43C)[C@@H]1CC[C@@H]2C(=O)O` [(1)]?
Answer: Reversibility of inhibition [1]: Reversible; Ki [1, 4]: 1100 nM

Question: Which T/DHT (5-alpha-reductase; 1 Hour) does the source give for `CC(C)N(C(=O)[C@H]1CCC2=C3CC[C@H]4N(C)C(=O)CC[C@]4(C)[C@H]3CC[C@@]21C)C(C)C` [4-Methyl-4-aza-5-alpha-8(14)-androsten-3-one-17β-N,N-diisopropylcarboxamide] here?
Answer: 1.00

Question: What about the DHT level (5-alpha-reductase; 1 Hour) of the same molecule?
Answer: .532 ± .08 ng/100 mg tissue

Question: And the T level (5-alpha-reductase; 1 Hour)?
Answer: .533 ± .15 ng/100 mg tissue

Question: And the T/DHT (5-alpha-reductase; 2 Hours)?
Answer: .97

Question: And the DHT level (5-alpha-reductase; 2 Hours)?
Answer: .496 ± .05 ng/100 mg tissue

Question: And the T level (5-alpha-reductase; 2 Hours)?
Answer: .481 ± .12 ng/100 mg tissue

Question: What about the T/DHT (5-alpha-reductase; 4 Hours) of the same molecule?
Answer: 1.20

Question: What about the DHT level (5-alpha-reductase; 4 Hours) of the same molecule?
Answer: .504 ± .09 ng/100 mg tissue

Question: What about the T level (5-alpha-reductase; 4 Hours) of the same molecule?
Answer: .607 ± .24 ng/100 mg tissue

Question: And the T/DHT (5-alpha-reductase; 8 Hours)?
Answer: 1.13

Question: And the DHT level (5-alpha-reductase; 8 Hours)?
Answer: .498 ± .04 ng/100 mg tissue

Question: And the T level (5-alpha-reductase; 8 Hours)?
Answer: .565 ± .16 ng/100 mg tissue

Question: And the “Difference in DHT levels compared to controls, in words” value (5-alpha-reductase; at 1, 2, 4, and 8 hours, P < .05)?
Answer: significant differences in DHT levels
